The format of data set [1] is physicochemical. The protocol: In Vitro Degradation Studies
A solution containing thioamide derivative of fipronil (“TD-fipronil”) in a solution of CH3CN/H2O (50:50 v/v) and the solution was subjected to the following degradation agents: an acid (0.5 N HCl); a base (0.5 N NaOH); fluorescent light; heat (65° C.); an oxidizer (5% H2O2); and UV light. The identity of fipronil formed was confirmed via HPLC with UV detection and HPLC with diode array detection.

On the set-up of data set [2]: species or system dogs. As to conditions: dog, po, 10 mg/kg. The protocol:
In Vivo Degradation Study—Oral Administration
An oral formulation (solution) comprising 100 mg/ml of thioamide derivatives of fipronil dissolved in 60:40 propylene glycol: glycerol formal was orally administered to dogs at a dosage rate of 10 mg/kg and the concentration of fipronil in blood plasma measured at 6 hours, day 1, day 2, and day 7 and is presented below

SMILES strings stand for the structures. Where two headings read alike, the source gives them in different places.

For the compound `NC(=S)c1nn(-c2c(Cl)cc(C(F)(F)F)cc2Cl)c(N)c1[S+]([O-])C(F)(F)F` (stereo not shown) [TD-fipronil], in data set [1], the degradation product formed result is listed as “fipronil sulfone”. For the same compound, the “stability in acid” value in data set [1] is on record as “stable in acid”. For the same compound, the fipronil formed result in data set [1] (Acid (0.5 N HCl), 4 days) is listed as “being degraded in 4 days; negligible amounts”; in data set [1] (Base (0.5 N NaOH)), “no fipronil was formed”; in data set [1] (Oxidation (5% H2O2)), “no fipronil was formed”. Further, the “sensitivity to light” value in data set [1] (UV light) is on record as “very sensitive to light”. The “in vivo degradation into fipronil judged against efficacy” value in data set [2] was “degrades into fipronil in vivo in amounts that are sufficient for efficacy against fleas and ticks”.
